# Experimental data: PMC5015447 (Biochemistry, 2016)
# Values joined by “and” are separate entries in the source; they are usually repeats but may differ in a detail not shown here. Equal values may be shown once. Read-outs that look alike come from different tables or passages of the source.
# Experiments:
# [1] = molecular target: E. coli cofactor-dependent phosphoglycerate mutase (dPGM) (Escherichia coli, UniProt P62707); assay: biochemical; assay type: binding
# dPGM R9A [2] = molecular target: T1, dPGM R9A (Escherichia coli, UniProt P62707, R10A); assay: Equilibrium unfolding of dPGM variant R9A with 1.0 mM ATP; assay type: binding, E. coli
# dPGM K99A [3] = molecular target: T2, dPGM K99A (Escherichia coli, UniProt P62707, K100A); assay: Equilibrium unfolding of dPGM variant K99A with 1.0 mM ATP; assay type: binding, E. coli
# dPGM R115A [4] = molecular target: T3, dPGM R115A (Escherichia coli, UniProt P62707, R116A); assay: Equilibrium unfolding of dPGM variant R115A with 1.0 mM ATP; assay type: binding, E. coli
# dPGM R116A [5] = molecular target: T4, dPGM R116A (Escherichia coli, UniProt P62707, R117A); assay: Equilibrium unfolding of dPGM variant R116A with 1.0 mM ATP; assay type: binding, E. coli
# dPGM K222A [6] = molecular target: T5, dPGM K222A (Escherichia coli, UniProt P62707, K223A); assay: Equilibrium unfolding of dPGM variant K222A; assay type: binding, E. coli
# Wild-type dPGM = Wild-type dPGM (Escherichia coli, UniProt P62707); assay: ATP binding by isothermal titration calorimetry, wild-type dPGM; parameters: species or system E. coli
# dPGM R9A [7] = molecular target: T1, dPGM R9A; assay: ATP binding by isothermal titration calorimetry, R9A; parameters: species or system E. coli
# dPGM K99A [8] = molecular target: T2, dPGM K99A; assay: ATP binding by isothermal titration calorimetry, K99A; parameters: species or system E. coli
# dPGM R115A [9] = molecular target: T3, dPGM R115A; assay: ATP binding by isothermal titration calorimetry, R115A; parameters: species or system E. coli
# dPGM R116A [10] = molecular target: T4, dPGM R116A; assay: ATP binding by isothermal titration calorimetry, R116A; parameters: species or system E. coli
# dPGM K222A [11] = molecular target: T5, dPGM K222A; assay: ATP binding by isothermal titration calorimetry, K222A; parameters: species or system E. coli
# [12] = system: cofactor-dependent phosphoglycerate mutase (dPGM); conditions: cited from earlier work
# S. cerevisiae dPGM = conditions: cited from earlier work
# [13] = ligand 1.0 mM, one global fit of all nucleotide data sets
# [14] = 50 mM phosphate, global fit with no-ligand data
# [15] = 50 mM phosphate, global fit with no-ligand data (shared m-value)
# T4 sequence (P62707 whole entry R117A): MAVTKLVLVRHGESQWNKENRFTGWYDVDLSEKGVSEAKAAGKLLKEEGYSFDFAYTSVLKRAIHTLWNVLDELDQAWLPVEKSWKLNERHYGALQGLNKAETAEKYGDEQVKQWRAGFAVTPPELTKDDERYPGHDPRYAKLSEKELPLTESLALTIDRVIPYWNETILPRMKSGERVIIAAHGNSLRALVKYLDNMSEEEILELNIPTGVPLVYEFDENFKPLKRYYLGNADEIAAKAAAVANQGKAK
# T3 sequence (P62707 whole entry R116A): as the sequence (P62707 whole entry R117A) above, with R116A, A117R counted along it
# E. coli cofactor-dependent phosphoglycerate mutase (dPGM), sequence (P62707 whole entry): as the sequence (P62707 whole entry R117A) above, with A117R counted along it
# T1 sequence (P62707 whole entry R10A): as the sequence (P62707 whole entry R117A) above, with R10A, A117R counted along it
# T5 sequence (P62707 whole entry K223A): as the sequence (P62707 whole entry R117A) above, with A117R, K223A counted along it
# T2 sequence (P62707 whole entry K100A): as the sequence (P62707 whole entry R117A) above, with K100A, A117R counted along it
# Wild-type dPGM, sequence (P62707 whole entry): as the sequence (P62707 whole entry R117A) above, with A117R counted along it
molecule,measurement,setting,value
"Nc1ncnc2c1ncn2[C@@H]1O[C@H](COP(=O)(O)OP(=O)(O)O)[C@@H](O)[C@H]1O [ADP, adenosine diphosphate]",Kd,[1],18 ± 3 µM
same,effect on equilibrium unfolding (first unfolding transition),[1]; ligand 1.0 mM,significantly shift the first unfolding transition to higher urea concentrations
same,ΔΔGI-N° = ΔGI-N°(ligand) – ΔGI-N°(no ligand),[1]; ligand 1.0 mM,4.8 (± 0.1) kcal/mol
same,ΔGI-N°,[1]; [13],16.4 (± 0.1) kcal/mol
same,ΔGU-I,[1]; [13],5.2 (± 0.2) kcal/mol
"Nc1ncnc2c1ncn2[C@@H]1O[C@H](COP(=O)(O)O)[C@@H](O)[C@H]1O [AMP, adenosine monophosphate]",Kd,"[1]; calculated with Eq. 6 from stability increase, ligand 1.0 mM",240 ± 40 µM
same,effect on equilibrium unfolding (first unfolding transition),[1]; ligand 1.0 mM,significantly shift the first unfolding transition to higher urea concentrations
same,ΔΔGI-N° = ΔGI-N°(ligand) – ΔGI-N°(no ligand),[1]; ligand 1.0 mM,1.96 (± 0.09) kcal/mol
same,ΔGI-N°,[1]; [13],13.6 (± 0.1) kcal/mol
same,ΔGU-I,[1]; [13],5.5 (± 0.2) kcal/mol
"Nc1ncnc2c1ncn2[C@@H]1O[C@H](COP(=O)(O)OP(=O)(O)OP(=O)(O)O)[C@@H](O)[C@H]1O [ATP, adenosine triphosphate]",Kd,[1],1.5 ± 0.5 µM
same,effective stability (ΔGeff),"[1]; 1.0 µM dPGM, 1.0 mM ATP, native conditions",5.4 kcal/mol
same,Cm of the single apparent unfolding transition,[1]; 1.0 mM ATP,about 3.6 M urea
same,increase in stability per monomeric unit,[1]; 1.0 mM ATP,3.5 kcal/mol
same,ΔG° of binding of ATP to the native dimer (N2),"[1]; 1.0 mM ATP, 2.5 M urea, per monomer",–3.5 kcal/mol
same,increase in ΔGI-N° (ΔGATP°) of wild type,"[1]; 1.0 mM ATP, Table 1 fit",7.0 ± 0.2 kcal/mol and 7.0 kcal/mol
same,maximum fraction of intermediate,"[1]; 1.0 mM ATP, around 3.7 M urea",0.12
same,effect on ΔGU-I°,"[1]; 1.0 mM ATP, called insignificant",0.6 kcal/mol
same,ΔGU-N°,"[1]; 1.0 mM ATP, fluorescence",30.5 ± 0.8 kcal/mol
same,ΔGI-N,"[1]; 1.0 mM ATP, fluorescence, global fit with no-ATP data, 30 µg/mL dPGM, pH 8.0",18.5 ± 0.2 kcal/mol
same,"effective free energy change, I to N2•L2","[1]; 2.5 M urea, 1.0 mM ATP, 1 µM dPGM",–2.4 kcal/mol per monomer
same,ΔGN-I° for reaction from I to N2•L2,"[1]; 2.5 M urea, 1.0 mM ATP, from Table 1 and Eq. 2",–12.5 kcal/mol
same,ΔΔGI-N° = ΔGI-N°(ligand) – ΔGI-N°(no ligand),[1]; ligand 1.0 mM,7.7 (± 0.2) kcal/mol
same,ΔGI-N°,[1]; [13],19.3 (± 0.2) kcal/mol
same,ΔGU-I,[1]; [13],5.0 (± 0.3) kcal/mol
same,ΔGATP° = ΔGI-N°(1 mM ATP) - ΔGI-N°(No ATP),dPGM R9A [2],4.2 ± 0.2 kcal/mol
same,ΔGI-N°,dPGM R9A [2],16.6 ± 0.2 kcal/mol
same,ΔGU-I°,dPGM R9A [2],6.3 ± 0.5 kcal/mol
same,ΔΔGATP° = ΔGATP°(variant) – ΔGATP°(WT),dPGM R9A [2],–1.4 ± 0.1 kcal/mol
same,ΔGI-N°,dPGM K99A [3],18.5 ± 0.2 kcal/mol
same,ΔGU-I°,dPGM K99A [3],6 ± 1 kcal/mol
same,ΔΔGATP° = ΔGATP°(variant) – ΔGATP°(WT),dPGM K99A [3],–1.5 ± 0.2 kcal/mol
same,ΔGATP° = ΔGI-N°(1 mM ATP) - ΔGI-N°(No ATP),dPGM R115A [4],4.8 ± 0.4 kcal/mol
same,ΔGI-N°,dPGM R115A [4],19.4 ± 0.3 kcal/mol
same,ΔGU-I°,dPGM R115A [4],5 ± 1 kcal/mol
same,ΔΔGATP° = ΔGATP°(variant) – ΔGATP°(WT),dPGM R115A [4],–1.1 ± 0.2 kcal/mol
same,ΔGATP° = ΔGI-N°(1 mM ATP) - ΔGI-N°(No ATP),dPGM R116A [5],5.4 ± 0.2 kcal/mol
same,ΔGI-N°,dPGM R116A [5],18.1 ± 0.2 kcal/mol
same,ΔGU-I°,dPGM R116A [5],5.8 ± 0.4 kcal/mol
same,ΔΔGATP° = ΔGATP°(variant) – ΔGATP°(WT),dPGM R116A [5],–0.8 ± 0.1 kcal/mol
same,ΔGATP° = ΔGI-N°(1 mM ATP) - ΔGI-N°(No ATP),dPGM K222A [6],9 ± 2 kcal/mol
same,ΔGI-N°,dPGM K222A [6]; 1.0 mM ATP,21 ± 2 kcal/mol
same,ΔGU-I°,dPGM K222A [6]; 1.0 mM ATP,4.4 ± 0.9 kcal/mol
same,ΔΔGATP° = ΔGATP°(variant) – ΔGATP°(WT),dPGM K222A [6]; 1.0 mM ATP,1.2 ± 1 kcal/mol
same,Kd,Wild-type dPGM,0.32 ± 0.07 µM
same,ΔGbind°,"Wild-type dPGM; WT, calculated with Eq. 6 using [ATP] = 1.0 mM",4.7 ± 0.1 kcal/mol
same,Kd,dPGM R9A [7],5.5 ± 0.5 µM
same,ΔΔGbind° = ΔGbind°(varient) – ΔGbind°(WT),dPGM R9A [7]; R9A,–1.7 ± 0.1 kcal/mol
same,ΔGbind°,"dPGM R9A [7]; R9A, calculated with Eq. 6 using [ATP] = 1.0 mM",3.1 ± 0.05 kcal/mol
same,Kd,dPGM K99A [8],7 ± 2 µM
same,ΔΔGbind° = ΔGbind°(varient) – ΔGbind°(WT),dPGM K99A [8]; K99A,–1.8 ± 0.2 kcal/mol
same,ΔGbind°,"dPGM K99A [8]; K99A, calculated with Eq. 6 using [ATP] = 1.0 mM",2.9 ± 0.2 kcal/mol
same,Kd,dPGM R115A [9],7 ± 2 µM
same,ΔΔGbind° = ΔGbind°(varient) – ΔGbind°(WT),dPGM R115A [9]; R115A,–1.8 ± 0.2 kcal/mol
same,ΔGbind°,"dPGM R115A [9]; R115A, calculated with Eq. 6 using [ATP] = 1.0 mM",2.9 ± 0.2 kcal/mol
same,Kd,dPGM R116A [10],1.5 ± 0.3 µM
same,ΔΔGbind° = ΔGbind°(varient) – ΔGbind°(WT),dPGM R116A [10]; R116A,–0.9 ± 0.2 kcal/mol
same,ΔGbind°,"dPGM R116A [10]; R116A, calculated with Eq. 6 using [ATP] = 1.0 mM",3.8 ± 0.1 kcal/mol
same,Kd,dPGM K222A [11],0.4 ± 0.1 µM
same,ΔΔGbind° = ΔGbind°(varient) – ΔGbind°(WT),dPGM K222A [11]; K222A,–0.1 ± 0.2 kcal/mol
same,ΔGbind°,"dPGM K222A [11]; K222A, calculated with Eq. 6 using [ATP] = 1.0 mM",4.6 ± 0.1 kcal/mol
same,stabilization by pulse proteolysis with purified dPGM,[12]; 1.0 mM ATP,stabilization
same,stabilization in energetics-based proteome screen,S. cerevisiae dPGM,stabilizes
Nc1ncnc2c1ncn2[C@@H]1O[C@H](CO[P@](=O)(O)O[P@](=O)(O)O[P@@](=O)(O)S)[C@@H](O)[C@H]1O [ATPγS],protein remaining intact after pulse proteolysis,"[12]; E. coli lysate, 2.0 M urea, 1.0 mM ATPγS",a significant population of the protein remained intact
"Nc1ncnc2c1ncn2[C@@H]1O[C@H](CO)[C@@H](O)[C@H]1O [Adenosine, adenosine]",effect on equilibrium unfolding (first unfolding transition),[1]; ligand 1.0 mM,negligible
same,ΔΔGI-N° = ΔGI-N°(ligand) – ΔGI-N°(no ligand),[1]; ligand 1.0 mM,0.09 (± 0.07) kcal/mol
same,ΔGI-N°,[1]; [13],11.7 (± 0.1) kcal/mol
same,ΔGU-I,[1]; [13],5.6 (± 0.2) kcal/mol
"Nc1nc2c(ncn2[C@@H]2O[C@H](COP(=O)(O)OP(=O)(O)OP(=O)(O)O)[C@@H](O)[C@H]2O)c(=O)[nH]1 [GTP, guanosine triphosphate]",Kd,[1],0.4 ± 0.5 µM
same,effect on equilibrium unfolding (first unfolding transition),[1]; ligand 1.0 mM,significantly shift the first unfolding transition to higher urea concentrations
same,ΔΔGI-N° = ΔGI-N°(ligand) – ΔGI-N°(no ligand),[1]; ligand 1.0 mM,9.3 (± 0.8) kcal/mol
same,ΔGI-N°,[1]; [13],20.9 (± 0.8) kcal/mol
same,ΔGU-I,[1]; [13],4.3 (± 0.6) kcal/mol
O=P(O)(O)OP(=O)(O)O [Pyrophosphate],Kd,[1],1.2 ± 0.2 µM
same,mI-N,[1],2.47 (± 0.04) kcal mol^−1M^−1
same,mU-I,[1],1.62 (± 0.09) kcal mol^−1M^−1
same,ΔGI-N°,[1],16.8 (± 0.1) kcal/mol
same,ΔGU-I,[1],5.2 (± 0.3) kcal/mol
same,ΔΔGI-N°,[1],5.3 (± 0.1) kcal/mol
phosphate,ΔΔGI-N°,[1]; 50 mM phosphate,5.9 (± 0.1) kcal/mol
same,ΔGI-N°,[1]; [14],17.3 (± 0.1) kcal/mol
same,ΔGU-I,[1]; [14],5.6 (± 0.3) kcal/mol
same,mI-N,[1]; [15],2.36 (± 0.03) kcal mol^−1M^−1
same,mU-I,[1]; [15],1.82 (± 0.08) kcal mol^−1M^−1
same,Kd,"[1]; calculated with Eq. 6, 50 mM phosphate",350 ± 60 µM
